Test results from patent publication US20230117592A1 (SRI International, priority 2019, published 2023).
pIC50: −log10 of the molar value. “And” between values parts separate entries of the source, which are not always exact repeats. Equal values may be shown once. Read-outs that look alike come from different tables or passages of the source.

How the values were obtained:
5-LOX = target: T1, 5-LOX (Homo sapiens, UniProt P09917); experiment: 5-LOX fluorescent assay (in vitro lipoxygenase inhibition); type: biochemical
T1 sequence (P09917 1-674): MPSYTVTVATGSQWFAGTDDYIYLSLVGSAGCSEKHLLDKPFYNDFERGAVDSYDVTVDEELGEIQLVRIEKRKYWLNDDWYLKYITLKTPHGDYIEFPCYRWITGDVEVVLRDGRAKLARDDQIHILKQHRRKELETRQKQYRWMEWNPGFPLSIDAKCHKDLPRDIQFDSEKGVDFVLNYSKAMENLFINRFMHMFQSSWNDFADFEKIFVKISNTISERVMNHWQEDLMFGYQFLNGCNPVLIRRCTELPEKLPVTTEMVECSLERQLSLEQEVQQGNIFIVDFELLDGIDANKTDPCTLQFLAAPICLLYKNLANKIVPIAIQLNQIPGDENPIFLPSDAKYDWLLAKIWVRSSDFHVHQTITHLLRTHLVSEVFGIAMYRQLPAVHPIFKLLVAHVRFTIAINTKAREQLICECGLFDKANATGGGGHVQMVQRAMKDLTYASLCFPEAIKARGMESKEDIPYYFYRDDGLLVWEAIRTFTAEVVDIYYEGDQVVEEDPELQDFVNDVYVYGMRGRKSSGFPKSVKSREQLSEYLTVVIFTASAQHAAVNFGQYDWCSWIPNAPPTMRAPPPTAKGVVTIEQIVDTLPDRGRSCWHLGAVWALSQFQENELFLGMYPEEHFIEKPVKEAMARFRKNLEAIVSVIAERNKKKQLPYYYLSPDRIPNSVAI
Experimental: 5-LOX FI assay Fluorescent Assay
The enzyme assay (100 μL) contained 50 mM Tris, pH 7.5, 0.1 mM EDTA, 0.3 mM CaCl2, 20 μM AA, 100 μM ATP, 1 μM DHR123, and recombinant 5-LOX cell lysate (0.5 μL/100 μL). Inhibitors (dissolved in DMSO) were plated at 1 μL into 96-well assay microplates followed by a 40 μL addition of a solution containing 5-LOX enzyme. Enzyme was pre-incubated with compounds for 15 mins. The assay was initiated by the addition of a 40 μL substrate solution containing AA and ATP, and 20 μL addition of a solution containing DHR123. […] Percent inhibition was calculated for each compound dose for IC50 curve fitting using 4 Parameter Logistic Model or Sigmoidal Dose-Response Model.

12-LOX = target: T2, 12-LOX (Homo sapiens, UniProt P18054); experiment: 12-LOX fluorescent assay (in vitro lipoxygenase inhibition); type: biochemical; details: for IC50: 100 nM recombinant 12-LOX, 20 μM AA, DHR123 fluorescence, several values in a cell = repeat determinations, read-out: IC50 (μM) values for in vitro lipoxygenase inhibition, 12-LOX
T2 sequence (P18054 1-663): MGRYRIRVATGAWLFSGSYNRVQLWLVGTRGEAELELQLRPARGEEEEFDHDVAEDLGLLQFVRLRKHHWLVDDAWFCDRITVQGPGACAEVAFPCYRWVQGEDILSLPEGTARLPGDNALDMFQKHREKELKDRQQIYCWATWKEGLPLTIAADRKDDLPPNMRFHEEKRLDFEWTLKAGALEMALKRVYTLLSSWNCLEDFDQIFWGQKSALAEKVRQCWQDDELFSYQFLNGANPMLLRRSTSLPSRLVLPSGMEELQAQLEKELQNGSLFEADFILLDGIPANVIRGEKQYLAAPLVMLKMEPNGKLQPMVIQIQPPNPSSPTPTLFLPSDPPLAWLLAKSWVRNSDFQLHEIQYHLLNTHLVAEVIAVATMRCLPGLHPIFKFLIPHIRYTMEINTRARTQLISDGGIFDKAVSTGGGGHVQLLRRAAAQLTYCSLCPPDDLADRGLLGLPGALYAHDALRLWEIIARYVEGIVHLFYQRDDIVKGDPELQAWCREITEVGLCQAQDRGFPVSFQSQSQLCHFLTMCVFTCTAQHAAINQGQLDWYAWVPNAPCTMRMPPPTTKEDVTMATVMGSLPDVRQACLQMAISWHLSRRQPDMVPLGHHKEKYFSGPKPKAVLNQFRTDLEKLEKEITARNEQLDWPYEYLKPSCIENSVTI
Experimental: 12-LOX/15-LOX Fluorescent Assay
The enzyme assay (100 ul) contained 50 mM Tris, pH 7.5, 0.05% Tween-20, 20 μM AA/LA, 1 μM DHR123, and 100 nM recombinant 12-LOX enzyme/50 nM recombinant 15-LOX enzyme. Inhibitors (dissolved in DMSO) were plated at 1 μL into 96-well assay microplates followed by a 40 μL addition of a solution containing 12-LOX/15-LOX enzyme. Enzyme was pre-incubated with compounds for 15 mins. The assay was initiated by the addition of a 40 μL substrate solution containing AA/LA, and 20μL addition of a solution containing DHR123. […] Percent inhibition was calculated for each compound dose for IC50 curve fitting using 4 Parameter Logistic Model or Sigmoidal Dose-Response Model.

[1] = recombinant 5-LOX cell lysate, 20 μM AA, DHR123 fluorescence, several values in a cell = repeat determinations, read-out: IC50 (μM) values for in vitro lipoxygenase inhibition, 5-LOX

For `Fc1ccc(Nc2ccc(NCCn3cncn3)c(-c3ccccc3)c2)c(Cl)c1` [SS20308-0165-01, N^2-(2-(1H-1,2,4-triazol-1-yl)ethyl)-N^5-(2-chloro-4-fluorophenyl)biphenyl-2,5-diamine], the IC50 (5-LOX; [1]) was 0.03 µM and 0.23 µM and the pIC50 (12-LOX) was 7.10 and 7.22.
Compound `c1ccc(Nc2ccc(-c3cccc4c3NCC4)c(NCCn3cncn3)c2)cc1` [SS20308-0166-01, N^3-(2-(1H-1,2,4-triazol-1-yl)ethyl)-4-(indolin-7-yl)-N^1-phenylbenzene-1,3-diamine] has an IC50 (5-LOX; [1]) of 0.14 µM and an IC50 (12-LOX) of 0.07 µM.
In the case of `CN(C)CCCc1c(Nc2ccccc2)cccc1-c1cccc2c1NCC2` [SS20308-0172-01, 2-(3-(dimethylamino)propyl)-3-(indolin-7-yl)-N-phenylaniline], the IC50 (5-LOX; [1]) was 0.23 µM and the IC50 (12-LOX) was 0.36 µM.
`c1ccc(Nc2cnc(-c3ccccc3)c(NCCn3cncn3)c2)cc1` [SS20308-0173-01, N^3-(2-(1H-1,2,4-triazol-1-yl)ethyl)-N^5,2-diphenylpyridine-3,5-diamine] gave an IC50 (5-LOX; [1]) of 2.22 µM and an IC50 (12-LOX) of 1.09 µM.
Work on `c1ccc(Nc2ccc(-c3ccccc3)c(NCCn3cncn3)n2)cc1` [SS20308-0175-01, N^2-(2-(1H-1,2,4-triazol-1-yl)ethyl)-N^6,3-diphenylpyridine-2,6-diamine] yielded an IC50 (5-LOX; [1]) of 0.32 µM and an IC50 (12-LOX) of 0.26 µM.
Compound `Cn1cncc1-c1ccc(Nc2ccccc2)cc1NCCn1cncn1` [SS20308-0177-01, N^3-(2-(1H-1,2,4-triazol-1-yl)ethyl)-4-(1-methyl-1H-imidazol-5-yl)-N^1-phenylbenzene-1,3-diamine] has an IC50 (5-LOX; [1]) of 1.45 µM and an IC50 (12-LOX) of 0.72 µM.
`c1ccc(Nc2ccc(-c3ccccc3)c(NCCCn3cncn3)c2)cc1` [SS20308-0178-01, N^2-(3-(1H-1,2,4-triazol-1-yl)propyl)-N^4-phenylbiphenyl-2,4-diamine] was tested, and the IC50 (5-LOX) was 150 nM and 210 nM (2×) and 90 nM and the pIC50 (12-LOX) was 7.05 and 6.96 and 7.15 and 6.85.
For `Fc1ccc(Nc2ccc(-c3ccc(Cl)cc3)c(NCCn3cncn3)c2)cc1` [SS20308-0181-01, N^2-(2-(1H-1,2,4-triazol-1-yl)ethyl)-4′-chloro-N^4-(4-fluorophenyl)biphenyl-2,4-diamine], the IC50 (5-LOX; [1]) was 0.16 µM and the IC50 (12-LOX) was 0.16 µM.
For `CN(C)CC1(CNc2cc(Nc3ccc(F)cc3)ccc2-c2ccccc2)COC1` [SS20308-0184-01, N^2-((3-((dimethylamino)methyl)oxetan-3-yl)methyl)-N^4-(4-fluorophenyl)biphenyl-2,4-diamine], the IC50 (5-LOX; [1]) was 0.16 µM and the IC50 (12-LOX) was 0.18 µM.
`c1ccc(Nc2ccc(-c3ccn[nH]3)c(NCCn3cncn3)c2)cc1` [SS20308-0189-01, N^3-(2-(1H-1,2,4-triazol-1-yl)ethyl)-N^1-phenyl-4-(1H-pyrazol-5-yl)benzene-1,3-diamine] was tested, and the IC50 (5-LOX; [1]) was 0.17 µM and 0.28 µM and the IC50 (12-LOX) was 0.08 µM and 0.15 µM.
In the case of `Cn1nccc1-c1ccc(Nc2ccccc2)cc1NCCn1cncn1` [SS20308-0190-01, N^3-(2-(1H-1,2,4-triazol-1-yl)ethyl)-4-(1-methyl-1H-pyrazol-5-yl)-N^1-phenylbenzene-1,3-diamine], the IC50 (5-LOX; [1]) was 1.35 µM and the IC50 (12-LOX) was 0.93 µM.
`Cn1cc(-c2ccc(Nc3ccccc3)cc2NCCn2cncn2)cn1` [SS20308-0191-01, N^3-(2-(1H-1,2,4-triazol-1-yl)ethyl)-4-(1-methyl-1H-pyrazol-4-yl)-N^1-phenylbenzene-1,3-diamine] was tested, and the IC50 (5-LOX; [1]) was 4.18 µM and the pIC50 (12-LOX) was 5.71.
`Cc1noc(C)c1-c1ccc(Nc2ccccc2)cc1NCCn1cncn1` [SS20308-0192-01, N^3-(2-(1H-1,2,4-triazol-1-yl)ethyl)-4-(3,5-dimethylisoxazol-4-yl)-N^1-phenylbenzene-1,3-diamine] showed an IC50 (5-LOX; [1]) of 0.83 µM and an IC50 (12-LOX) of 0.59 µM.
`c1ccc(Nc2ccc(-c3cccs3)c(NCCn3cncn3)c2)cc1` [SS20308-0193-01, N^3-(2-(1H-1,2,4-triazol-1-yl)ethyl)-N^1-phenyl-4-(thiophen-2-yl)benzene-1,3-diamine] was tested, and the IC50 (5-LOX; [1]) was 0.28 µM and the IC50 (12-LOX) was 0.14 µM.
`N#Cc1ccc(-c2ccc(Nc3ccccc3)cc2NCCn2cncn2)s1` [SS20308-0194-01, 5-(2-(2-(1H-1,2,4-triazol-1-yl)ethylamino)-4-(phenylamino)phenyl)thiophene-2-carbonitrile] was tested, and the IC50 (5-LOX; [1]) was 0.19 µM and the IC50 (12-LOX) was 0.13 µM.
Compound `c1ccc(Nc2ccc(C3CCCO3)c(NCCn3cncn3)c2)cc1` (centres unmarked) [SS20308-0195-01, N^3-(2-(1H-1,2,4-triazol-1-yl)ethyl)-N^1-phenyl-4-(tetrahydrofuran-2-yl)benzene-1,3-diamine] has an IC50 (5-LOX; [1]) of 0.76 µM and an IC50 (12-LOX) of 0.36 µM.
Compound `CN(C)CCCc1ccc(Nc2ccccc2Cl)c(Nc2ccccc2Cl)c1` [SS20308-0198-01, N^1,N^2-bis(2-chlorophenyl)-4-(3-(dimethylamino)propyl)benzene-1,2-diamine] has an IC50 (5-LOX; [1]) of 0.25 µM and an IC50 (12-LOX) of 0.32 µM.
In the case of `CN(C)CCCc1cc(Nc2ccc(F)cc2Cl)c(F)cc1Nc1ccc(F)cc1Cl` [SS20308-0199-01, N^1,N^4-bis(2-chloro-4-fluorophenyl)-2-(3-(dimethylamino)propyl)-5-fluorobenzene-1,4-diamine], the IC50 (5-LOX; [1]) was 0.68 µM and the IC50 (12-LOX) was 0.51 µM.
With `c1ccc(-c2ccc(NC3CCCCC3)cc2NCCn2cncn2)cc1` [SS20308-0200-01, N^2-(2-(1H-1,2,4-triazol-1-yl)ethyl)-N^4-cyclohexylbiphenyl-2,4-diamine] the IC50 (5-LOX; [1]) was 0.4 µM and the IC50 (12-LOX) was 0.17 µM.
`Fc1ccc(Nc2ccc3c(c2)N(CCn2cncn2)CC3)cc1` [SS20308-0201-01, 1-(2-(1H-1,2,4-triazol-1-yl)ethyl)-N-(4-fluorophenyl)indolin-6-amine] was tested, and the IC50 (5-LOX; [1]) was 0.19 µM and the IC50 (12-LOX) was 0.05 µM.
`Fc1ccc(CNc2ccc(NCCn3cncn3)c(-c3cccc4c3NCC4)c2)cc1` [SS20308-0211-01, N^1-(2-(1H-1,2,4-triazol-1-yl)ethyl)-N^4-(4-fluorobenzyl)-2-(indolin-7-yl)benzene-1,4-diamine] was tested, and the IC50 (5-LOX; [1]) was 0.08 µM and 0.07 µM and the IC50 (12-LOX) was 0.04 µM and 0.03 µM.
In the case of `c1ccc(CNc2cnc(NCCn3cncn3)c(-c3ccccc3)c2)cc1` [SS20308-0212-01, N^2-(2-(1H-1,2,4-triazol-1-yl)ethyl)-N^5-benzyl-3-phenylpyridine-2,5-diamine], the IC50 (5-LOX; [1]) was 2.93 µM and the IC50 (12-LOX) was 1.61 µM.
`c1ccc(CNc2cc(-c3ccccc3)c(NCCn3cncn3)cn2)cc1` [SS20308-0213-01, N^5-(2-(1H-1,2,4-triazol-1-yl)ethyl)-N^2-benzyl-4-phenylpyridine-2,5-diamine] was tested, and the IC50 (5-LOX; [1]) was 0.61 µM and the IC50 (12-LOX) was 0.08 µM.
`c1ccc(CNc2ccc(NCCn3cncn3)c(-c3ccccc3)n2)cc1` [SS20308-0214-01, N^5-(2-(1H-1,2,4-triazol-1-yl)ethyl)-N^2-benzyl-6-phenylpyridine-2,5-diamine] showed an IC50 (5-LOX; [1]) of 0.16 µM and an IC50 (12-LOX) of 0.05 µM.
With `c1ccc(CNc2ccc(NCCn3cncn3)c(-c3ccncc3)c2)cc1` [SS20308-0215-01, N^1-(2-(1H-1,2,4-triazol-1-yl)ethyl)-N^4-benzyl-2-(pyridin-4-yl)benzene-1,4-diamine] the IC50 (5-LOX; [1]) was 0.07 µM and 0.09 µM and the IC50 (12-LOX) was 0.04 µM and 0.03 µM.
